Tests used:
Assay in all cases: relative viability (nuclei count vs DMSO), 5 days (fraction); higher = more cells survive
EPLC-272H = tested on: EPLC-272H
Outline: (§1)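 Lung cancer cell lines in 1536-well plates were dosed by pin tool the day after seeding, either with one drug alone or with a fixed anchor-drug dose plus five library-drug doses (not always all listed) in √10 steps. After 5 days, cells were fixed and their nuclei stained in one step (final 0.05% Triton X-100, 1% formaldehyde, 1 ug/ml Hoechst), then counted on 4× images. Relative viability is the nuclei count in treated wells divided by that in vehicle wells. Values are medians of duplicate plates.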

SW 900 = tested on: SW 900
Outline: as §1

NCI-H1793 = tested on: NCI-H1793
Outline: as §1

COR-L 105 = tested on: COR-L 105
Outline: as §1

SK-LU-1 = tested on: SK-LU-1
Outline: as §1

NCI-H1666 = tested on: NCI-H1666
Outline: as §1

NCI-H1792 = tested on: NCI-H1792
Outline: as §1

HCC-366 = tested on: HCC-366
Outline: as §1

HCC-78 = tested on: HCC-78
Outline: as §1

A-427 = tested on: A-427
Outline: as §1

NCI-H358 = tested on: NCI-H358
Outline: as §1

NCI-H2009 = tested on: NCI-H2009
Outline: as §1

NCI-H460 = tested on: NCI-H460
Outline: as §1

NCI-H2085 = tested on: NCI-H2085
Outline: as §1

LC-2-ad = tested on: LC-2-ad
Outline: as §1

NCI-H2170 = tested on: NCI-H2170
Outline: as §1

HOP-62 = tested on: HOP-62
Outline: as §1

LU99A = tested on: LU99A
Outline: as §1

UMC-11 = tested on: UMC-11
Outline: as §1

LXF-289 = tested on: LXF-289
Outline: as §1

NCI-H1944 = tested on: NCI-H1944
Outline: as §1

NCI-H1915 = tested on: NCI-H1915
Outline: as §1

CCN(CC)CCCCNc1ncc2cc(-c3cc(OC)cc(OC)c3)c(NC(=O)NC(C)(C)C)nc2n1 + O=C(c1cc(Cc2n[nH]c(=O)c3ccccc23)ccc1F)N1CCN(C(=O)C2CC2)CC1 [Olaparib] (partner 8 µM)
relative viability (EPLC-272H; first compound 0.01 µM): 0.884 | relative viability (EPLC-272H; first compound 0.03162 µM): 0.701 | relative viability (EPLC-272H; first compound 0.1 µM): 0.647 | relative viability (EPLC-272H; first compound 0.3162 µM): 0.737 | relative viability (EPLC-272H; first compound 1 µM): 0.488 | relative viability (SW 900; first compound 0.01 µM): 0.834 | relative viability (SW 900; first compound 0.03162 µM): 0.901 | relative viability (SW 900; first compound 0.1 µM): 0.839 | relative viability (SW 900; first compound 0.3162 µM): 0.793 | relative viability (SW 900; first compound 1 µM): 0.592 | relative viability (NCI-H1793; first compound 0.01 µM): 0.676 | relative viability (NCI-H1793; first compound 0.03162 µM): 0.839 | relative viability (NCI-H1793; first compound 0.1 µM): 1.23 | relative viability (NCI-H1793; first compound 0.3162 µM): 0.926 | relative viability (NCI-H1793; first compound 1 µM): 0.54 | relative viability (COR-L 105; first compound 0.01 µM): 0.805 | relative viability (COR-L 105; first compound 0.03162 µM): 0.62 | relative viability (COR-L 105; first compound 0.1 µM): 0.73 | relative viability (COR-L 105; first compound 0.3162 µM): 0.619 | relative viability (COR-L 105; first compound 1 µM): 0.696 | relative viability (SK-LU-1; first compound 0.01 µM): 0.447 | relative viability (SK-LU-1; first compound 0.03162 µM): 0.404 | relative viability (SK-LU-1; first compound 0.1 µM): 0.477 | relative viability (SK-LU-1; first compound 0.3162 µM): 0.472 | relative viability (SK-LU-1; first compound 1 µM): 0.433 | relative viability (NCI-H1666; first compound 0.01 µM): 0.812 | relative viability (NCI-H1666; first compound 0.03162 µM): 0.708 | relative viability (NCI-H1666; first compound 0.1 µM): 0.686 | relative viability (NCI-H1666; first compound 0.3162 µM): 0.748 | relative viability (NCI-H1666; first compound 1 µM): 0.719 | relative viability (NCI-H1792; first compound 0.01 µM): 0.547 | relative viability (NCI-H1792; first compound 0.03162 µM): 0.475 | relative viability (NCI-H1792; first compound 0.1 µM): 0.668 | relative viability (NCI-H1792; first compound 0.3162 µM): 0.77 | relative viability (NCI-H1792; first compound 1 µM): 0.317 | relative viability (HCC-366; first compound 0.01 µM): 0.323 | relative viability (HCC-366; first compound 0.03162 µM): 0.374 | relative viability (HCC-366; first compound 0.1 µM): 0.362 | relative viability (HCC-366; first compound 0.3162 µM): 0.405 | relative viability (HCC-366; first compound 1 µM): 0.346 | relative viability (HCC-78; first compound 0.01 µM): 0.82 | relative viability (HCC-78; first compound 0.03162 µM): 0.782 | relative viability (HCC-78; first compound 0.1 µM): 0.802 | relative viability (HCC-78; first compound 0.3162 µM): 0.94 | relative viability (HCC-78; first compound 1 µM): 0.771 | relative viability (A-427; first compound 0.01 µM): 0.781 | relative viability (A-427; first compound 0.03162 µM): 0.746 | relative viability (A-427; first compound 0.1 µM): 0.838 | relative viability (A-427; first compound 0.3162 µM): 0.816 | relative viability (A-427; first compound 1 µM): 0.685 | relative viability (NCI-H358; first compound 0.01 µM): 0.683 | relative viability (NCI-H358; first compound 0.03162 µM): 0.642 | relative viability (NCI-H358; first compound 0.1 µM): 0.744 | relative viability (NCI-H358; first compound 0.3162 µM): 0.69 | relative viability (NCI-H358; first compound 1 µM): 0.469 | relative viability (NCI-H2009; first compound 0.01 µM): 0.828 | relative viability (NCI-H2009; first compound 0.03162 µM): 0.696 | relative viability (NCI-H2009; first compound 0.1 µM): 0.699 | relative viability (NCI-H2009; first compound 0.3162 µM): 0.75 | relative viability (NCI-H2009; first compound 1 µM): 0.7 | relative viability (NCI-H460; first compound 0.01 µM): 0.462 | relative viability (NCI-H460; first compound 0.03162 µM): 0.514 | relative viability (NCI-H460; first compound 0.1 µM): 0.52 | relative viability (NCI-H460; first compound 0.3162 µM): 0.57 | relative viability (NCI-H460; first compound 1 µM): 0.43 | relative viability (NCI-H2085; first compound 0.01 µM): 0.818 | relative viability (NCI-H2085; first compound 0.03162 µM): 0.81 | relative viability (NCI-H2085; first compound 0.1 µM): 0.792 | relative viability (NCI-H2085; first compound 0.3162 µM): 0.743 | relative viability (NCI-H2085; first compound 1 µM): 0.752 | relative viability (LC-2-ad; first compound 0.01 µM): 0.776 | relative viability (LC-2-ad; first compound 0.03162 µM): 0.744 | relative viability (LC-2-ad; first compound 0.1 µM): 0.787 | relative viability (LC-2-ad; first compound 0.3162 µM): 0.788 | relative viability (LC-2-ad; first compound 1 µM): 0.668 | relative viability (NCI-H2170; first compound 0.01 µM): 0.583 | relative viability (NCI-H2170; first compound 0.03162 µM): 0.559 | relative viability (NCI-H2170; first compound 0.1 µM): 0.655 | relative viability (NCI-H2170; first compound 0.3162 µM): 0.676 | relative viability (NCI-H2170; first compound 1 µM): 0.732 | relative viability (HOP-62; first compound 0.01 µM): 0.608 | relative viability (HOP-62; first compound 0.03162 µM): 0.523 | relative viability (HOP-62; first compound 0.1 µM): 0.416 | relative viability (HOP-62; first compound 0.3162 µM): 0.823 | relative viability (HOP-62; first compound 1 µM): 0.383 | relative viability (LU99A; first compound 0.01 µM): 0.249 | relative viability (LU99A; first compound 0.03162 µM): 0.288 | relative viability (LU99A; first compound 0.1 µM): 0.286 | relative viability (LU99A; first compound 0.3162 µM): 0.285 | relative viability (LU99A; first compound 1 µM): 0.245 | relative viability (UMC-11; first compound 0.01 µM): 0.39 | relative viability (UMC-11; first compound 0.03162 µM): 0.372 | relative viability (UMC-11; first compound 0.1 µM): 0.422 | relative viability (UMC-11; first compound 0.3162 µM): 0.353 | relative viability (UMC-11; first compound 1 µM): 0.422 | relative viability (LXF-289; first compound 0.01 µM): 1.14 | relative viability (LXF-289; first compound 0.03162 µM): 1.11 | relative viability (LXF-289; first compound 0.1 µM): 1.25 | relative viability (LXF-289; first compound 0.3162 µM): 1.1 | relative viability (LXF-289; first compound 1 µM): 1.08 | relative viability (NCI-H1944; first compound 0.01 µM): 0.363 | relative viability (NCI-H1944; first compound 0.03162 µM): 0.415 | relative viability (NCI-H1944; first compound 0.1 µM): 0.474 | relative viability (NCI-H1944; first compound 0.3162 µM): 0.428 | relative viability (NCI-H1944; first compound 1 µM): 0.394 | relative viability (NCI-H1915; first compound 0.01 µM): 0.234 | relative viability (NCI-H1915; first compound 0.03162 µM): 0.291 | relative viability (NCI-H1915; first compound 0.1 µM): 0.239 | relative viability (NCI-H1915; first compound 0.3162 µM): 0.245 | relative viability (NCI-H1915; first compound 1 µM): 0.222

Reference: the supplement of paper PMC10307832
